In patent US11291660B2, “Method of treating heart failure with preserved ejection fraction by administering milrinone” (Baker Heart and Diabetes Institute, priority 2014, dated 2022):

Legend:
[1] = Saturated solubility of Milrinone in different buffers; type: physicochemical; settings: pH 1.2 to 7.4 buffers
Description: Aim: To perform the saturated solubility of Milrinone in different buffers.
1. pH 1.2—Hydrochloric Acid Buffer
3. pH 6.8—Phosphate Buffer
4. pH 7.4—Phosphate Buffer.
• 1. 2 mL buffer solution is placed into a 8 mL USP Type I clear glass vial (with screw cap and PTFE septa) • 2. 10 mg of Milrinone is added in each vial and the vial is shaken to dissolve the compound. • 3. The addition of Milrinone is continued till the formation of saturated solution. • 4. The pH of the saturated solution is measured after the addition of Milrinone. • 5. If there is any difference in pH more than 0.1 units is observed when compared to the initial pH, the pH was adjusted with acid or base respectively to bring it to the initial pH. • 6. The vials are closed with screw cap and kept for mixing using rotary tube shaker for 24 h. Note: The vials are observed at frequent intervals and if the solution is clear, further amount of Milrinone is added to make a saturated solution.

[2] = tested on: HFpEF patients; settings: cited from earlier work
[3] = tested on: HFpEF; settings: in vivo; cited from earlier work
[4] = tested on: HFpEF patients; settings: cited from earlier work; remark: listed apart in the source
[5] = tested on: HFpEF patients; settings: cited from earlier work; remark: listed apart in the source

## Cc1[nH]c(=O)c(C#N)cc1-c1ccncc1 [Milrinone, 1,2-dihydro-3-cyano-6-methyl-5-(4-pyridinyl)-2(1H)-pyridinone]
[1]
  Solubility as a function of pH (in words): highly soluble in acidic pH

## COc1ccccc1OCC(O)CN1CCN(CC(=O)Nc2c(C)cccc2C)CC1 (stereo not drawn) [Ranolazine]
[2]
  Echocardiographic parameters or exercise performance: did not result in a change

## C[C@H]1O[C@@H](O[C@H]2[C@@H](O)C[C@H](O[C@H]3[C@@H](O)C[C@H](O[C@H]4CC[C@@]5(C)[C@H](CC[C@@H]6[C@@H]5C[C@@H](O)[C@]5(C)[C@@H](C7=CC(=O)OC7)CC[C@]65O)C4)O[C@@H]3C)O[C@@H]2C)C[C@H](O)[C@@H]1O [digoxin]
[3]
  Benefit as therapy for HFpEF: little or no conclusive benefit

## CCCc1nn(C)c2c(=O)[nH]c(-c3cc(S(=O)(=O)N4CCN(C)CC4)ccc3OCC)nc12 [sildenafil]
[4]
  Exercise capacity or clinical status: did not result in improvement

## CC(=O)S[C@@H]1CC2=CC(=O)CC[C@]2(C)[C@H]2CC[C@@]3(C)[C@@H](CC[C@@]34CCC(=O)O4)[C@H]12 [spironolactone]
[5]
  Left ventricular diastolic function: improved left ventricular diastolic function
  Maximal exercise capacity, patient symptoms or quality of life: did not affect
